Data from patent US20100115635A1, “Methods for Assessing the Delivery of Exogenous Agents” (Abbott Laboratories, priority 2007, published 2010).

Test system: MDA-tetR-ODC/Luc liver tumors
Assay: bioluminescence imaging of MDA-tetR-ODC/Luc liver tumors
Type: in vivo, mice
Settings: 4 days after doxycycline treatment
From the text: A MDA-tetR-ODC/Luc cell line was created from MDA-MB435-SLM-derived cell line with a stably integrated tetR-ODC expression cassette and a tet-responsive firefly luciferase reporter. FIG. 6A). The MDA-tetR-ODC/Luc cells were inoculated into skid mice to establish liver tumors. The mice were imaged before doxycycline treatment (top panel of FIG. 6A) or 4 days after doxycycline treatment (bottom panel of FIG. 6A). […] FIG. 6B) Monitoring target knockdown in the MDA-tetR-ODC/Luc cell-derived liver tumors using imaging. The MDA-tetR-ODC/Luc cells were inoculated into skid mice to establish liver tumors. […] Mice were imaged before dosing and 2 days after the last dose. […] The mice were imaged before doxycycline treatment (top panel of FIG. 6B) or 4 days after doxycycline treatment (bottom panel of FIG. 6B).

With `C[C@H]1c2cccc(O)c2C(=O)C2=C(O)[C@]3(O)C(=O)C(C(N)=O)=C(O)[C@@H](N(C)C)[C@@H]3[C@@H](O)[C@@H]21` [doxycycline] the “increase of luminescent signal compared to untreated mice” value was “more than 100 fold”.
